Reference: patent US20240344128A1, “IDENTIFICATION AND ELIMINATION OF DAMAGED AND/OR SENESCENT CELLS” (FUNDACIÓN DEL SECTOR PÜBLICO ESTATAL CENTRO NACIONAL DE …, priority 2017, published 2024)

Columns and labels:
senescent cells = settings: cited from earlier work; for elimination of senescent cells: literature reports
PD-L2 mRNA [1] = assay: Doxorubicin-induced PD-L2 mRNA in C2C12 cells with enzymatic inhibitors; assay type: cell-based, mouse; settings: 500 nM doxorubicin, 48 hours
Method: C2C12 cells (FIG. 9) were treated with 500 nM doxorubicin for 48 hours in the presence or absence of the following inhibitors at the indicated concentrations: IKKi (50 μM), PIMi (1 μM), rotenone (1 μM), JAKi (3 μM), rapamycin (50 nM) and metformin (5 mM) or cultured in pyruvate-depleted media (FIG. 9A). In addition, C2C12 cells were incubated for 6 hours in the presence or absence of TLRs agonists (Mouse TLR1-9 Agonist kit. Invivogen): TLR1/2 agonist (Pam3CSK4, 300 ng/ml), TLR2 agonist (HKLM, 10^8 cells/ml), TLR3 agonist (Poly (I:C) HMW and Poly (I:C) LMW, 10 μg/ml), TLR4 agonist (LPS-EK, 10 μg/ml), TRL5 agonist (FLA-ST, 1 μg/ml), TRL6/2 agonist (FSL-1, 100 ng/ml), TRL7 agonist (ssRNA40, 5 μg/ml) and TLR9 agonist (ODN1826, 5 μM). Total RNA was isolated using TRI Reagent (Sigma-Aldrich #T9424) according to the manufacturer's instructions.
(§1) The isolated RNA was quantified using a nanodrop machine NanoVue (GE Healthcare). cDNA synthesis was performed with 2-7 μg of total RNA using the “iScript Advanced cDNA Synthesis kit” from BIO-RAD (#1725037). Quantitative real-time PCR was carried out with diluted cDNA (1:10) and “GoTaq qPCR Master Mix” (Promega A6002). Reactions were performed in triplicate in a 15 μl volume reaction mix prepared as follow: 7.5 μl 2X GoTaq qPCR Master Mix; 0.6 μl of pre-mixed primers (10 μM forward primer and 10 μM reverse primer); 1.9 μl nuclease-free water and 5 μl template cDNA (previously diluted 1:10).
The qRT-PCR reaction was performed on a 7500 Fast Real-Time PCR System (Applied Biosystems) using “MicroAmp Fast Optical 96-well reaction plate with barcode” (Thermo Fisher #4346906) and “MicroAmp Optical adhesive film” (Thermo Fisher #4311971). The reaction consisted in two holding stages (50° C. for 2:00 min and 95° C. for 10:00 min) and 40 amplification reactions (95° C. for 00:15 min/60° C. for 01:00 min/72° C. for 00:30 min) followed by a Melt Curve Stage.
The Ct values of the genes of interest were averaged and normalized to the housekeeping gene β-actin. For each cell line and condition at least two independent experiments were performed.

PD-L2 mRNA [2] = assay: PD-L1 and PD-L2 mRNA by quantitative RT-PCR in mouse cell lines after 48 hours of genotoxic drugs; assay type: cell-based; settings: C2C12, HcMel3 and HcMel13 cells
Method: C2C12, HcMel3 and HcMel12 (FIG. 3) were treated with 12×10^−3 units/ml bleomycin or doxorubicin 500 nM (C2C12) or 167 nM (HcMel3 and HcMel12) for 48 hours. Total RNA was isolated using TRI Reagent (Sigma-Aldrich #T9424) according to the manufacturer's instructions.
as §1
The qRT-PCR reaction was performed on a 7500 Fast Real-Time PCR System (Applied Biosystems) using “MicroAmp Fast Optical 96-well reaction plate with barcode” (Thermo Fisher #4346906) and “MicroAmp Optical adhesive film” (Thermo Fisher #4311971). The reaction consisted in two holding stages (50° C. for 2:00 min and 95° C. for 10:00 min) and 40 amplification reactions (95° C. for 00:15 min/60° C. for 01:00 min/72° C. for 00:30 min) followed by a Melt Curve Stage. […]

[3] = tested on: SK-Mel-103, UT-SCC-38 and UT-SCC-42B cells; assay: SA-β gal / senescent response in human tumor cell lines; assay type: cell-based; settings: SK-Mel-103 cells, 7 days
Method: SK-Mel-103, UT-SCC-38 and UT-SCC-42B the cell lines were maintained in DMEM (Gibco) supplemented with 10% fetal bovine serum (Gibco) with antimycotic-antibiotic (Gibco), and incubated in 20% O2 sand 5% CO2 at 37° C. SK-Mel-103 and UT-SCC-42B cells were split 1:10 every 3-4 days. UT-SCC-38 were split 1:3 every 3-4 days.
Eight days before the assay 20.000 SK-Mel-103 cells and 40.000 UT-SCC-38 and UT-SCC-42B cells were seeded into 6 well tissue culture plates (Falcon). The next day cells were treated with 2 μM Palbociclib. SK-Mel-103 cells were also treated with 10 nM Doxorubicin, 1 μM Nutlin or 6×10^−3 units/ml Bleomycin. All the cells were incubated in the presence of the senescence-inducing agents for at least 7 days without changing the media. Control cells were seeded in 6 well plates 24-48 hours prior the SA-β gal assay.
SA-β galactosidase activity was assessed with the β-Galactosidase Staining Kit from Cell Signaling (#9860) following the manufactured instructions with one single variation: the pH of the “Staining Solution” (supplemented with buffers A and B and X-gal) was carefully adjusted to 6.

PD-L2 mRNA [4] = assay: PD-L1 and PD-L2 mRNA by quantitative RT-PCR in human tumor cell lines; assay type: cell-based; settings: SK-Mel-103 cells, 7 days
Method: Treated cells were not further split and their media was not changed for the duration of the treatment. Control cells were split every 3-4 days as previously described. One week after the start of the treatment, total RNA was isolated from control and treated cells with TRI Reagent (Sigma-Aldrich #T9424) following the manufacturer instructions. The isolated RNA was quantified using a nanodrop machine NanoVue (GE Healthcare). cDNA synthesis was performed with 2-7 μg of total RNA using the “iScript Advanced cDNA Synthesis kit” from BIO-RAD (#1725037). Quantitative real-time PCR was carried out with diluted cDNA (1:10) and “GoTaq qPCR Master Mix” (Promega A6002). Reactions were performed in triplicate in a 15 μl volume reaction mix prepared as follow: 7.5 μl 2X GoTaq qPCR Master Mix; 0.6 μl of pre-mixed primers (10 μM forward primer and 10 μM reverse primer); 1.9 μl nuclease-free water and 5 μl template cDNA (previously diluted 1:10). The qRT-PCR reaction was performed on a 7500 Fast Real-Time PCR System (Applied Biosystems) using “MicroAmp Fast Optical 96-well reaction plate with barcode” (Thermo Fisher #4346906) and “MicroAmp Optical adhesive film” (Thermo Fisher #4311971). […]

SK-Mel-103 cells = assay: 53BP1 immunofluorescence (DNA double-strand breaks); assay type: cell-based, human; settings: 7 days
Method: SK-Mel-103 cells were seeded at 50% confluency on round 12 mm diameter coverslips (Marienfeld #0111520) previously placed inside 24 well plates. The following day, cells were treated with the senescence-inducing agents: 2 μM Palbociclib, […], 1 μM Nutlin and 6×10^−3 units/ml Bleomycin. Treated cells were not further split and their media was not changed for the duration of the treatment (7 days). Control cells were seeded similarly to treated, cells 24-48 hours prior the beginning of the procedure. Seven days after addition of the senescence-inducing agents, control and treated cells were washed with 1×PBS and Fixed on 2% paraformaldehyde-PBS for 10 minutes. The cells were then permeabilized with 0.25% Triton-PBS for 5 minutes, washed twice with 1×PBS and blocked with 5% BSA-PBS for 30 minutes. Next, the cells were incubated for 30 minutes with anti-53BP1 antibody (Abcam #ab172580) previously diluted 1:100 in blocking buffer (5% BSA-PBS), washed 3 times for 10 minutes with 1X PBS and incubated in the dark for 30 additional minutes with the secondary antibody: goat anti-rabbit Alexa Fluor 546 (ThermoFisher #A-11010) diluted 1:400 in blocking buffer. Finally, the cells were washed again 3 times for 10 minutes with 1×PBS and incubated with DAPI (Sigma #D9542) 300 nM in 1×PBS for 10 minutes. All the incubations and washed were performed at room temperature in 24 well plates. […]

PD-L2 mRNA [5] = assay: PD-L2 mRNA in mouse melanoma cell lines B16F1 and B16F10; assay type: cell-based; settings: B16F1 and B16F10 cells; data not shown
lungs = assay: Bleomycin-induced lung fibrosis in C57BL6 mice; assay type: in vivo, mouse; settings: single intratracheal dose, 14 days
Method: SA-β galactosidase activity was assessed in whole mount lungs (FIG. 5A) and xenografts (FIG. 6B) using the Senescence β-Galactosidase Staining Kit (Cell Signaling #9860). Lungs were fixed for 45 minutes with a solution containing 2% formaldehyde and 0.2% glutaraldehyde in PBS for 45 minutes and washed three times with PBS. Fixed tissues were subsequently stained overnight (16 hours) with X-gal staining solution (adjusted to pH 6.0).
For gene expression analysis lungs were isolated and embedded in optimal cutting temperature (OCT) compound (Leica Biosystems). To obtain total RNA of OCT embedded tissue samples, 10 cryostat sections of 10 μm thickness were cut and excess OCT were removed. Cryosections were lysed in TRI Reagent (Sigma-Aldrich #T9424), pooled and processed according to manufacturer's instructions. cDNA was synthesized using 2 μg of total RNA. cDNA synthesis and RT-qPCR were performed as previously described. The Ct values of the genes of interest were averaged and normalized to the housekeeping gene Gapdh.
Lung fibrosis was induced in C57BL6 mice (ENVIGO) by intratracheal delivery of a single dose of bleomycin (1.5 U/kg) or vehicle (PBS). 14 days after intratracheal injection, lung samples of vehicle (control) or bleomycin (fibrotic)-treated mice were collected for the analysis of SA-β gal activity and gene expression.

## CN(C)CC[C@H](CSc1ccccc1)Nc1ccc(S(=O)(=O)NC(=O)c2ccc(N3CCN(Cc4ccccc4-c4ccc(Cl)cc4)CC3)cc2)cc1[N+](=O)[O-] [ABT-737]
Senescent cells
  elimination of senescent cells: selectively eliminate senescent cells

## Fc1cc(-c2cccc3ncc(-c4cnn(C5CCNCC5)c4)nc23)cc(F)c1CN1CCOCC1 [JAK inhibitor, NVP-BSK805]
PD-L2 mRNA [1]
  PD-L2 induction: prevented PD-L2 induction

## Cc1ccc(S(=O)(=O)/C=C/C#N)cc1 [NFkB inhibitor, BAY 11-7082]
PD-L2 mRNA [1]
  PD-L2 induction: prevented PD-L2 induction

## CC1(C)CCC(c2ccc(Cl)cc2)=C(CN2CCN(c3ccc(C(=O)NS(=O)(=O)c4ccc(N[C@H](CCN5CCOCC5)CSc5ccccc5)c(S(=O)(=O)C(F)(F)F)c4)cc3)CC2)C1 [Navitoclax]
Senescent cells
  elimination of senescent cells: efficiently eliminate senescent cells in vitro and in vivo

## O=c1c(O)c(-c2ccc(O)c(O)c2)oc2cc(O)cc(O)c12 [Quercetin]
Senescent cells; Dasatinib and Quercetin used in combination, aged, progeroid and irradiation-exposed mice
  number of damaged and/or senescent cells: reduced the number of damaged and/or senescent cells

## COc1cccc2c1C(=O)c1c(O)c3c(c(O)c1C2=O)C[C@@](O)(C(=O)CO)C[C@@H]3O[C@H]1C[C@H](N)[C@H](O)[C@H](C)O1 [doxorubicin, Doxorubicin]
PD-L2 mRNA [2]
  PD-L2 mRNA: dramatic increase in PD-L2 mRNA

## CN(C)C(=N)N=C(N)N [metformin]
PD-L2 mRNA [1]
  PD-L2 induction: prevented PD-L2 induction

## C=C(C)[C@H]1Cc2c(ccc3c2O[C@@H]2COc4cc(OC)c(OC)cc4[C@@H]2C3=O)O1 [rotenone]
PD-L2 mRNA [1]
  PD-L2 induction: prevented PD-L2 induction

## Bleomycin
[3]
  induction of senescence: induce senescence in the SK-Mel-103 cells
PD-L2 mRNA [4]
  PD-L2 mRNA levels: had a similar effect on PD-L2 mRNA levels
SK-Mel-103 cells
  DNA damage (53BP1 foci): exhibited nuclear 53-BP1 foci
PD-L2 mRNA [5]
  PD-L2 mRNA: PD-L2 mRNA up-regulation
PD-L2 mRNA [2]
  PD-L2 mRNA: dramatic increase in PD-L2 mRNA
lungs
  senescent cells (SA-β galactosidase positive staining) in whole fibrotic lungs: accumulation of senescent cells
lungs; lung
  PD-L2 and PD-L1 mRNA in fibrotic organs: significant and specific up-regulation of PD-L2 mRNA, but not of PD-L1 mRNA

## Nutlin
[3]
  induction of senescence: induce senescence in the SK-Mel-103 cells
PD-L2 mRNA [4]
  PD-L2 mRNA levels: had a similar effect on PD-L2 mRNA levels
SK-Mel-103 cells
  DNA damage (53BP1 foci): absence of 53BP1 foci in the chromatin
